Read-outs that look alike come from different tables or passages of the source.
Columns and labels:
[1] = tested on: CAKI-2, human kidney cell; assay: In vitro cytotoxicity (MTT) on CAKI-2; assay type: cell-based
Method: (§1) This assay was performed to determine the effect of compounds of the present invention on cell cytotoxicity. Cells were incubated in presence or absence of compounds in their respective conditioned media. […] The supernatant was discarded and 100 μl of dimethylsulfoxide (DMSO) was added. Absorbance was read at […] with an ELISA Tecan SUNRISE™ plate reader. The control group consisted of cells without compounds and is referred to as 100% of viable cells. IC50 was determined using PRISM® software.
(§2) The predictive utility of cell-based cytotoxicity assays to assess the potential in vivo anticancer activity of compounds with selected cancer cell lines is well established in the art and the use of whole cells, instead of isolated protein receptors or enzymes, provides a more reliable determination of activity. See, for example, Paull et al. J. Natl. Cancer Inst. 81:1088-1092 (1989); Monks et al. J. Natl. Cancer Inst. 83:757-766 (1991); Bandes et al. J. Natl. Cancer Inst. 86:770-775 (1994); and Kamate et al. Intl. J. Cancer 100:571-579 (2002).

[2] = tested on: PBML, Peripheral Blood Mononuclear Leukocytes; assay: In vitro cytotoxicity (MTT) on PBML; assay type: cell-based; settings: Leukocyte
Method: as §1, §2

[3] = tested on: Hep-G2, human liver cell; assay: In vitro cytotoxicity (MTT) on Hep-G2; assay type: cell-based
Method: as §1, §2

[4] = tested on: DA-3; assay: In vitro cytotoxicity (MTT) on DA-3; assay type: cell-based, BALB/c mice; settings: Mus musculus
Method: as §1, §2
The syngeneic tumor DMBA3 (DA-3, breast carcinoma model) arose from a preneoplastic lesion treated with 7,12-dimethylbenzanthracene in female BALB/c mice. DA-3 cells were grown as monolayer cultures in plastic flasks in RPMI-1640 containing 0.1 mM nonessential amino acids, 0.1 μM sodium pyruvate, 2 mM L-glutamine. This was further supplemented with 50 μM 2-mercaptoethanol and 10% fetal bovine serum. The DA-3 tumors were serially passage in vivo by intradermal inoculation of 5×10^5 viable tumor cells to produce localized tumors in 6- to 8-week old BALB/c mice. The animals were then serially monitored by manual palpation for evidence of tumor. Mice were treated at day 11, 18 and 25 with cyclophosphamide (100 mg/kg) and at day 11, 12, 13, 15, 18, 20, 22, 25, 27 and 29 with compound 1, 2, 3 or 8 (50 mg/kg). Mice were sacrificed at day 43. Serial tumor volume was obtained by bi-dimensional diameter measurements with calipers, using the formula 0.4 (a×b^2) where “a” was the major tumor diameter and “b” the minor perpendicular diameter. […] The National Cancer Institute (USA) defines the product as effective if T/C is ≦40%.

[5] = tested on: NHDF, Normal Human Dermal Fibroblast; assay: In vitro cytotoxicity (MTT) on NHDF; assay type: cell-based
Method: as §1, §2

[6] = tested on: B16F10 lung metastases; assay type: in vivo
Method: Female 6-8-week old C57BL/6 mice were injected intravenously on day 0 with 1-2.5×10^5 B16F10 melanoma cells from ATCC (source of cell culture, Dr. I. J. Fidler). B16F10 melanoma cells are a highly metastatic cell line which preferentially forms nodules in the lungs. Cells were cultured in DMEM supplemented with 10% fetal bovine serum. […] Fourteen days after inoculation, mice were sacrificed and their lungs were removed, rinsed in PBS, and placed in Bouin's fixative. The number of metastatic nodules (black colonies) on the surface of the lungs were counted.

[7] = tested on: B16F10, murine melanoma cell; assay: In vitro cytotoxicity (MTT) on B16F10; assay type: cell-based; settings: Mus musculus, B16-F10
Method: as §1, §2

[8] = tested on: PC-3, human prostate carcinoma cell; assay: In vitro cytotoxicity (MTT) on PC-3; assay type: cell-based
Method: as §1, §2

[9] = tested on: P815, murine mastocytoma cell; assay: In vitro cytotoxicity (MTT) on P815; assay type: cell-based; settings: Mus musculus
Method: as §1, §2

[10] = FIG. 3, 50 mg/kg i.v. on day -3, -2, -1, 3, 5 and 7, p<0.001

Row | Compound | IC50 ([1]; 24-hour cell culture) [µM] | IC50 ([1]; 72-hour cell culture) [µM] | IC50 ([2]; 24-hour cell culture) [µM] | IC50 ([2]; 72-hour cell culture) [µM] | IC50 ([3]; HepG2, 24-hour cell culture) [µM] | IC50 ([3]; HepG2, 72-hour cell culture) [µM] | IC50 ([4]; 24-hour cell culture) [µM] | IC50 ([4]; 72-hour cell culture) [µM] | IC50 ([5]; 24-hour cell culture) [µM] | IC50 ([5]; 72-hour cell culture) [µM] | inhibition of the number of tumor nodules in lungs [6, 10] | IC50 ([7]; 24-hour cell culture) [µM] | IC50 ([7]; 72-hour cell culture) [µM] | IC50 ([8]; 24-hour cell culture) [µM] | IC50 ([8]; 72-hour cell culture) [µM] | IC50 ([9]; 24-hour cell culture) [µM] | IC50 ([9]; 72-hour cell culture) [µM] | inhibition of the number of tumor nodules in lungs ([6]; FIG. 5, p<0.05) [%] | reduction of the number of tumor nodules ([6]; FIG. 4, used alone, compound 50 mg/kg i.v., doxorubicin 1 mg/kg) [%]
1 | Oc1ccc(CCNc2nc(NCCNc3nc(NCCc4ccc(O)cc4)nc(Nc4ccccc4)n3)nc(Nc3ccccc3)n2)cc1 [Compound 1] | > 40 | 15 | 98 | 45 | 19 | 23 | 4 | 4.2 | > 100 | 16 | significant inhibition | 6 | 6 | 8.3 | 8.3 | 34 | 34 | – | –
2 | Nc1ccc(CCNc2nc(NCCNc3nc(NCCc4ccc(N)cc4)nc(Nc4cccc(N)c4)n3)nc(Nc3cccc(N)c3)n2)cc1 [Compound 3] | > 40 | – | > 100 | > 100 | > 40 | – | – | – | > 100 | > 100 | – | 4 | 6 | > 100 | 15 | 33 | 3 | – | –
3 | Nc1cccc(Nc2nc(NCCO)nc(Nc3ccc(Nc4nc(NCCO)nc(Nc5cccc(N)c5)n4)cc3)n2)c1 [Compound 4] | – | – | 100 | > 100 | – | – | – | – | > 100 | > 100 | – | 12 | 37 | 78 | 37 | 86 | 32 | – | –
4 | Nc1cccc(Nc2nc(N)nc(Nc3cccc(Nc4nc(N)nc(Nc5cccc(N)c5)n4)c3)n2)c1 [Compound 5] | – | – | > 100 | > 100 | – | – | 20 | – | > 100 | 78 | – | 8.5 | 39 | 50 | 26 | > 100 | 44.7 | – | –
5 | Nc1cccc(Nc2nc(NCCO)nc(Nc3cccc(Nc4nc(NCCO)nc(Nc5cccc(N)c5)n4)c3)n2)c1 [Compound 6] | – | – | > 100 | > 100 | – | – | 30 | – | > 100 | > 100 | – | 2.6 | – | 63 | – | > 100 | > 100 | – | –
6 | CN(C)c1nc(NCCc2ccc(Nc3nc(Nc4cccc(N)c4)nc(N(C)C)n3)cc2)nc(Nc2cccc(N)c2)n1 [Compound 7] | – | – | > 100 | 79 | – | – | – | – | > 100 | > 100 | – | 2.2 | 3 | 85 | 8 | 20 | 1.3 | – | –
7 | Nc1cccc(Nc2nc(NCCO)nc(NCc3cccc(F)c3)n2)c1 [Compound 9] | – | – | > 100 | > 100 | – | – | – | – | > 100 | > 100 | – | > 100 | 91 | > 100 | > 100 | > 100 | 43 | – | –
8 | CC(Nc1nc(Nc2cccc(N)c2)nc(Nc2cccc(N)c2)n1)c1cccc(N)c1 (centres unmarked) [Compound 10] | – | – | > 100 | > 100 | – | – | > 100 | – | > 100 | > 100 | significant inhibition | 62 | 36 | 74 | – | > 100 | 36.6 | – | –
9 | Nc1cccc(Nc2nc(NCCNc3nc(Nc4cccc(N)c4)nc(Nc4cccc(O)c4)n3)nc(Nc3cccc(O)c3)n2)c1 [Compound 11] | – | – | – | – | – | – | – | – | – | – | – | 1.4 | 6.3 | 4.4 | 4.9 | 21.2 | 4.8 | – | –
10 | CN(C)c1nc(NCCc2ccc(Nc3nc(NCCO)nc(Nc4cccc(N)c4)n3)cc2)nc(Nc2cccc(N)c2)n1 [Compound 12] | – | – | – | – | – | – | – | – | – | – | – | 1.2 | 2 | 11 | 3.3 | 13.5 | 2.8 | – | –
11 | CN1CCN(c2nc(Nc3ccc(CCNc4nc(NCCO)nc(Nc5cccc(N)c5)n4)cc3)nc(Nc3cccc(N)c3)n2)CC1 [Compound 13] | – | – | – | – | – | – | – | – | – | – | – | 1.9 | 2.2 | 11 | 6.1 | 6.5 | 2.1 | – | –
12 | Nc1cccc(Nc2nc(NCCO)nc(Nc3cccc(Nc4nc(NCCO)nc(Nc5cccc(F)c5)n4)c3)n2)c1 [Compound 14] | – | – | – | – | – | – | – | – | – | – | – | 2.6 | 10.2 | 29.9 | 15.6 | 13.1 | 7.8 | 50 | –
13 | Nc1cccc(CCNc2nc(Nc3ccc(CCNc4nc(NCCO)nc(Nc5cccc(N)c5)n4)cc3)nc(Nc3cccc(N)c3)n2)c1 [Compound 15] | – | – | – | – | – | – | – | – | – | – | – | 1.8 | 2.9 | 10.9 | 4.3 | 13.4 | 3.3 | – | –
14 | CN(C)c1nc(Nc2ccc(CCNc3nc(NCCO)nc(Nc4cccc(N)c4)n3)cc2)nc(Nc2cccc(N)c2)n1 [Compound 16] | – | – | – | – | – | – | – | – | – | – | – | 0.5 | 3.5 | 20.3 | 5.1 | 12.6 | 2.4 | – | –
15 | Nc1cccc(Nc2nc(NCCO)nc(NCCc3ccc(Nc4nc(NCCc5ccccc5N)nc(Nc5cccc(N)c5)n4)cc3)n2)c1 [Compound 17] | – | – | – | – | – | – | – | – | – | – | – | 1.2 | 3.6 | 11.6 | 4 | 14.5 | 1.5 | – | –
16 | CN1CCN(c2nc(NCCc3ccc(Nc4nc(Nc5cccc(N)c5)nc(N5CCN(C)CC5)n4)cc3)nc(Nc3cccc(N)c3)n2)CC1 [Compound 18] | – | – | – | – | – | – | – | – | – | – | – | 1.1 | 0.6 | 12.2 | 10.3 | 2.5 | 0.7 | – | –
17 | Nc1cccc(Nc2nc(NCCO)nc(Nc3ccc(Nc4nc(NCCO)nc(Nc5cccc(F)c5)n4)cc3)n2)c1 [Compound 19] | – | – | – | – | – | – | 4.5 | 13.4 | 19.4 | – | – | 2.8 | 6.2 | 8.2 | 5.7 | 16.4 | 8.6 | – | –
18 | COc1cccc2c1C(=O)c1c(O)c3c(c(O)c1C2=O)C[C@@](O)(C(=O)CO)C[C@@H]3O[C@H]1C[C@H](N)[C@H](O)[C@H](C)O1 [doxorubicin, reference compound] | – | – | – | – | – | – | – | – | – | – | – | – | – | – | – | – | – | – | 90

Reference: patent publication US20090075867A1, “Triazine compounds and compositions thereof for the treatment of cancers” (priority 2005, published 2009)
